From ChEMBL document CHEMBL5608173, “Discovery of novel natural-product-derived mutant isocitrate dehydrogenases 1 inhibitors: Structure-based virtual screening, biological evaluation and structure-activity relationship study” (Eur J Med Chem, 2024)
Activity calls are given as the source filed them. No cut-off for these calls is given here.

Tests used:
[1] = test system: Isocitrate dehydrogenase [NADP] cytoplasmic (Homo sapiens), O75874 [R132C]; experiment: Inhibition of recombinant human IDH1 R132C mutant extracted from Escherichia coli BL21 (DE3) cells using alpha-ketoglutarate as substrate at 0.2 uM incubated for 60 mins in presence of NADPH by absorbance based assay relative to control
[2] = test system: Isocitrate dehydrogenase [NADP] cytoplasmic (Homo sapiens), O75874 [R132H]; experiment: Inhibition of recombinant human IDH1 R132H mutant extracted from Escherichia coli BL21 (DE3) cells using alpha-ketoglutarate as substrate at 2 uM incubated for 60 mins in presence of NADPH by absorbance based assay relative to control
[3] = test system: Isocitrate dehydrogenase [NADP] cytoplasmic (Homo sapiens), O75874 [R132H]; experiment: Inhibition of recombinant human IDH1 R132H mutant extracted from Escherichia coli BL21 (DE3) cells using alpha-ketoglutarate as substrate at 0.2 uM incubated for 60 mins in presence of NADPH by absorbance based assay relative to control
[4] = test system: Isocitrate dehydrogenase [NADP] cytoplasmic (Homo sapiens), O75874 [R132C]; experiment: Inhibition of recombinant human IDH1 R132C mutant extracted from Escherichia coli BL21 (DE3) cells using alpha-ketoglutarate as substrate at 2 uM incubated for 60 mins in presence of NADPH by absorbance based assay relative to control
[5] = test system: HT-1080; experiment: Antiproliferative activity against human HT-1080 cells harboring IDH1 R132C mutant assessed as reduction in cell viability incubated for 72 hrs by MTT assay; format: functional
[6] = test system: U-87 MG; experiment: Antiproliferative activity against human U-87 MG cells harboring IDH1 R132H mutant assessed as reduction in cell viability incubated for 72 hrs by MTT assay; format: functional, U-87MG ATCC
[7] = test system: U-87 MG; experiment: Antiproliferative activity against human U-87 MG cells assessed as reduction in cell viability incubated for 72 hrs by MTT assay; format: functional, U-87MG ATCC
[8] = test system: HT-1080; experiment: Antiproliferative activity against human HT-1080 cells harboring IDH1 R132C mutant assessed as reduction in cell viability at 10 uM incubated for 72 hrs by MTT assay; format: functional, cell-based
[9] = test system: L02; experiment: Cytotoxicity against human L02 cells assessed as inhibition of cell growth at 50 uM; format: toxicity, cell-based; conditions: l02, 50 µM
[10] = target: T1, Isocitrate dehydrogenase [NADP] cytoplasmic (Homo sapiens, UniProt O75874, R132H); experiment: Inhibition of IDH1 R132H mutant (unknown origin)
[11] = target: T2, Isocitrate dehydrogenase [NADP] cytoplasmic (Homo sapiens, UniProt O75874, R132C); experiment: Inhibition of IDH1 R132C mutant (unknown origin)
[12] = target: T1, Isocitrate dehydrogenase [NADP] cytoplasmic; experiment: Inhibition of IDH1 R132H mutant in human U-87 MG cells assessed as reduction in 2-HG level incubated for 48 hrs in presence of NAD+ by resazurin fluorescence dye based Sigma MAK320-1 assay kit analysis; format: cell-based
[13] = target: T2, Isocitrate dehydrogenase [NADP] cytoplasmic; experiment: Inhibition of recombinant human IDH1 R132C mutant extracted from Escherichia coli BL21 (DE3) cells using alpha-ketoglutarate as substrate incubated for 60 mins in presence of NADPH by absorbance based assay
[14] = target: T2, Isocitrate dehydrogenase [NADP] cytoplasmic; experiment: Inhibition of IDH1 R132C mutant in human HT-1080 cells assessed as reduction in 2-HG level incubated for 48 hrs in presence of NAD+ by resazurin fluorescence dye based Sigma MAK320-1 assay kit analysis; format: cell-based
[15] = target: T1, Isocitrate dehydrogenase [NADP] cytoplasmic; experiment: Inhibition of recombinant human IDH1 R132H mutant extracted from Escherichia coli BL21 (DE3) cells using alpha-ketoglutarate as substrate incubated for 60 mins in presence of NADPH by absorbance based assay
[16] = target: Isocitrate dehydrogenase [NADP] cytoplasmic (Homo sapiens, UniProt O75874); experiment: Inhibition of recombinant human wildtype IDH1 extracted from Escherichia coli BL21 (DE3) cells using alpha-ketoglutarate as substrate incubated for 60 mins in presence of NADPH by absorbance based assay
[17] = test system: Isocitrate dehydrogenase [NADP] cytoplasmic (Homo sapiens), O75874 [R132H]; experiment: Inhibition of IDH1 R132H mutant in human U-87 MG cells assessed as reduction in 2-HG level at 10 uM incubated for 48 hrs in presence of NAD+ by resazurin fluorescence dye based Sigma MAK320-1 assay kit analysis relative to control; format: cell-based

T1 sequence (O75874 2-414 R132H limits assumed): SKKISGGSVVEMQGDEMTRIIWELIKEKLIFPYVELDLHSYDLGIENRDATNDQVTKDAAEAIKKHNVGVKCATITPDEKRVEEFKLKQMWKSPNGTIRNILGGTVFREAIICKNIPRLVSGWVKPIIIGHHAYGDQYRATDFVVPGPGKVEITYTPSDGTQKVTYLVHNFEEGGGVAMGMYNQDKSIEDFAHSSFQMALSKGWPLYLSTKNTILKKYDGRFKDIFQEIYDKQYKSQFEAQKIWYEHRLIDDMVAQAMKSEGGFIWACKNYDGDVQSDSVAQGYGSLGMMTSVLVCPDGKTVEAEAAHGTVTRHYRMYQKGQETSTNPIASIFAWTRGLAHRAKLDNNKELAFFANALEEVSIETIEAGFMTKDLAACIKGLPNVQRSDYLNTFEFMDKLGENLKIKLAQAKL
Isocitrate dehydrogenase [NADP] cytoplasmic (Homo sapiens, UniProt O75874), sequence (O75874 whole entry): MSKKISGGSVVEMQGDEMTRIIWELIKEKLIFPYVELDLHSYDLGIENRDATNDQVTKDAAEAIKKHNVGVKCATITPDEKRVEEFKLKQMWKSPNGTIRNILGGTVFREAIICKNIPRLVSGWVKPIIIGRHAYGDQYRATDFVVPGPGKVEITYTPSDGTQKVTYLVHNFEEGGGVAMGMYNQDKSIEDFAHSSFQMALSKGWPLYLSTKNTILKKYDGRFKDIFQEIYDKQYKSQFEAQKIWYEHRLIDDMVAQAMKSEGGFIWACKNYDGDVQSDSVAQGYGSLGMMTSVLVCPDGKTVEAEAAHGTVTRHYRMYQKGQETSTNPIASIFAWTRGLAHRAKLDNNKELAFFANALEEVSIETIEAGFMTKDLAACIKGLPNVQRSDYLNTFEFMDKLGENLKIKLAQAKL
Isocitrate dehydrogenase [NADP] cytoplasmic (Homo sapiens), O75874 [R132H], sequence (O75874 whole entry R132H): as the sequence (O75874 whole entry) above, with R132H counted along it
T2 sequence (O75874 2-414 R132C limits assumed): as the sequence (O75874 2-414 R132H limits assumed) above, with H131C counted along it
Isocitrate dehydrogenase [NADP] cytoplasmic (Homo sapiens), O75874 [R132C], sequence (O75874 whole entry R132C): as the sequence (O75874 whole entry) above, with R132C counted along it

COc1cc(OC)c(-c2cc(-c3ccc(O)cc3)nc(-c3ncccn3)n2)cc1CC=C(C)C
inhibition [1]: 11% | inhibition [2]: 91.2% | inhibition [3]: 33.4% | inhibition [4]: 81.2%

CCCCc1nc(-c2ccc(O)cc2)cc(-c2cc(CC=C(C)C)c(OC)cc2O)n1
inhibition [1]: 10.3% | inhibition [2]: 51.6% | inhibition [3]: 7.6% | inhibition [4]: 41.2%

COc1cc(O)c(-c2cc(-c3ccc(O)cc3)nc(-c3ccccc3)n2)cc1CC=C(C)C
inhibition [1]: 37.7% | inhibition [2]: 88.5% | inhibition [3]: 27% | inhibition [4]: 96.4%

COc1cc(O)c(-c2cc(-c3ccc(O)cc3)nc(-c3nn(Cc4ccccc4F)c4ncccc34)n2)cc1CC=C(C)C
inhibition [1]: 40.1% | inhibition [2]: 89.4% | inhibition [3]: 30.5% | inhibition [4]: 81.9%

COC(=O)N1CCN(c2nc(-c3ccc(O)cc3)cc(-c3cc(CC=C(C)C)c(OC)cc3O)n2)CC1
inhibition [1]: 24.6% | inhibition [2]: 75.4% | inhibition [3]: 21.1% | inhibition [4]: 80.1%

COc1cc(O)c(-c2cc(-c3ccc(O)cc3)nc(-c3nccs3)n2)cc1CC=C(C)C
inhibition [1]: inactive | inhibition [2]: 61.1% | inhibition [3]: 11.1% | inhibition [4]: 56.3%

COc1cc(O)c(-c2cc(-c3ccc(O)cc3)nc(N)n2)cc1CC=C(C)C
inhibition [1]: 8.9% | inhibition [2]: 30.7% | inhibition [3]: 11.2% | inhibition [4]: 47.5%

COCOc1ccc(/C=C/C(=O)c2cc(CC=C(C)C)c(OC)cc2O)cc1
inhibition [1]: inactive | inhibition [2]: inactive | inhibition [3]: inactive | inhibition [4]: inactive

COc1cc(O)c(-c2cc(-c3ccc(O)cc3)nc(N3CCOCC3)n2)cc1CC=C(C)C
inhibition [1]: 24.1% | inhibition [2]: 82.1% | inhibition [3]: 13.8% | inhibition [4]: 94.6%

COc1cc(O)c(-c2cc(-c3ccc(O)cc3)nc(N3CCN(C(C)=O)CC3)n2)cc1CC=C(C)C
inhibition [1]: 12.8% | inhibition [2]: 61.2% | inhibition [3]: 34.7% | inhibition [4]: 69.4%

COc1cc(O)c(-c2cc(-c3ccc(O)cc3)nc(-c3ccccn3)n2)cc1CC=C(C)C
GC50 [5]: 850 nM | GC50 [6]: >20000 nM | GC50 [7]: >20000 nM | inhibition [1]: 22.7% | Activity [8]: Active | inhibition [2]: 74% | inhibition [3]: 33.1% | inhibition [4]: 76.8% | Activity [9]: Toxic

COc1cc(O)c(-c2cc(-c3ccc(O)cc3)nc(N3CCCCC3)n2)cc1CC=C(C)C
inhibition [1]: 11.8% | inhibition [2]: 93.6% | inhibition [3]: 9.4% | inhibition [4]: 89.7%

COc1c(C)cc(NC(=O)c2nn(Cc3ccc(F)cc3)c3c2CN(C(=O)c2ccc[nH]2)C[C@]3(C)C(N)=O)cc1C
IC50 [10]: 15.2 nM | IC50 [11]: 8.8 nM

COc1ccc(-c2cc(-c3ccc(O)cc3)nc(-c3ncccn3)n2)c(O)c1
EC50 [12]: 263 nM | GC50 [6]: 6800 nM | IC50 [13]: 78.9 nM | GC50 [7]: >20000 nM | inhibition [1]: 82% | EC50 [14]: 279 nM | inhibition [2]: > 100% | IC50 [15]: 90.2 nM | inhibition [3]: 73.1% | inhibition [4]: 97.5% | Activity [9]: Toxic | IC50 [16]: > 20000 nM

COc1cc(O)c(-c2cc(-c3ccc(O)cc3)nc(-c3cnccn3)n2)cc1CC=C(C)C
inhibition [1]: 24.5% | inhibition [2]: 81.8% | inhibition [3]: 17.2% | inhibition [4]: 67.3%

COc1cc(O)c(C(=O)/C=C/c2ccc(O)cc2)cc1CC=C(C)C
inhibition [1]: inactive | inhibition [2]: 54% | inhibition [3]: 14.9% | inhibition [4]: 46.3% | IC50 [16]: > 20000 nM | inhibition [17]: 35.8%

CC(Cc1ccc(O)c(O)c1)C(C)Cc1ccc(O)c(O)c1 (stereo unspecified) [NORDIHYDROGUAIARETIC ACID]
inhibition [2]: 51.2% | IC50 [16]: > 20000 nM | inhibition [17]: < 10%

COc1ccc(-c2cc(-c3cc(CC=C(C)C)c(OC)cc3OC)nc(-c3ncccn3)n2)cc1
inhibition [1]: 24.7% | inhibition [2]: 87.3% | inhibition [3]: 12.1% | inhibition [4]: 92.4% | Activity [9]: Toxic

COCOc1ccc(/C=C/C(=O)c2cc(CC=C(C)C)c(OC)cc2OC)cc1
inhibition [1]: inactive | inhibition [2]: inactive | inhibition [3]: inactive | inhibition [4]: inactive

COc1cc(O)c(-c2cc(-c3ccc(O)cc3)nc(N3CCCC3)n2)cc1CC=C(C)C
inhibition [1]: 30.9% | inhibition [2]: 70.2% | inhibition [3]: 5% | inhibition [4]: 84.3%

COc1cc(O)c(-c2cc(-c3ccc(O)cc3)nc(-c3ncccn3)n2)cc1CC=C(C)C
inhibition [1]: 14.6% | inhibition [2]: > 100% | inhibition [3]: 41.3% | inhibition [4]: > 100%

COc1cc(O)c(-c2cc(-c3ccc(O)cc3)nc(-c3cccnc3)n2)cc1CC=C(C)C
inhibition [1]: 20.3% | inhibition [2]: 48.3% | inhibition [3]: 17.7% | inhibition [4]: 57.9% | Activity [9]: Toxic

COc1cc(O)c(-c2cc(-c3ccc(O)cc3)ncn2)cc1CC=C(C)C
inhibition [1]: 17.8% | inhibition [2]: 47.2% | inhibition [3]: 13.4% | inhibition [4]: 58.6% | Activity [9]: Toxic

COc1cc(O)c(-c2cc(-c3ccc(O)cc3)nc(C(C)(C)C)n2)cc1CC=C(C)C
inhibition [1]: 14.7% | inhibition [2]: 60.4% | inhibition [3]: 13.5% | inhibition [4]: 53.1%

COc1cc(O)c(-c2cc(-c3ccc(O)cc3)nc(N3CCN(c4ncccn4)CC3)n2)cc1CC=C(C)C
inhibition [1]: 10.4% | inhibition [2]: 37.4% | inhibition [3]: inactive | inhibition [4]: 32.5%

COc1cc(O)c(-c2cc(-c3ccc(O)cc3)[nH]n2)cc1CC=C(C)C
inhibition [1]: 14.2% | inhibition [2]: 17.5% | inhibition [3]: inactive | inhibition [4]: 29.1%

O=C(/C=C/c1ccc(O)cc1)OC[C@H]1O[C@@H](Oc2c(-c3ccc(O)cc3)oc3cc(O)cc(O)c3c2=O)[C@H](O)[C@@H](O)[C@@H]1O [TILIROSIDE]
inhibition [2]: 58.1% | IC50 [16]: > 20000 nM | inhibition [17]: < 10%

COc1cc(O)c(-c2cc(-c3ccc(O)cc3)nc(C)n2)cc1CC=C(C)C
inhibition [1]: 12.5% | inhibition [2]: 49.1% | inhibition [3]: 13.6% | inhibition [4]: 67.2% | Activity [9]: Toxic

COc1cc(OC)c(C(=O)/C=C/c2ccc(O)cc2)cc1CC=C(C)C
inhibition [1]: inactive | inhibition [2]: inactive | inhibition [3]: inactive | inhibition [4]: inactive

COc1cc(O)c(-c2cc(-c3ccc(O)cc3)nc(C3CCCO3)n2)cc1CC=C(C)C (stereo unspecified)
inhibition [1]: 13.4% | inhibition [2]: 60.1% | inhibition [3]: 14.7% | inhibition [4]: 70.4%

COc1cc(O)c(-c2cc(-c3ccc(O)cc3)nc(-c3ccncc3)n2)cc1CC=C(C)C
GC50 [5]: 6000 nM | inhibition [1]: 28.2% | Activity [8]: Active | inhibition [2]: 56.7% | inhibition [3]: 9.7% | inhibition [4]: 68.1% | Activity [9]: Toxic

COc1cc(O)c(-c2cc(-c3ccc(O)cc3)nc(-c3ccncc3Cl)n2)cc1CC=C(C)C
inhibition [1]: 14.9% | inhibition [2]: 95.1% | inhibition [3]: 10.5% | inhibition [4]: 74.1%
